These results are taken from ChEMBL document CHEMBL4715723, “Discovery and development of benzo-[1,2,4]-triazolo-[1,4]-oxazepine GPR142 agonists for the treatment of diabetes” (Bioorg Med Chem Lett, 2016).

Calls of active or inactive are those of the source. The rule behind the calls is not given here.

Series [1] is described as follows: Clearance in rat at 2 mg/kg, po or 1 mg/kg, iv. Type of series: ADME, organism-based. The note with it: in vivo.
Series [2] can be described thus: Oral bioavailability in rat at 2 mg/kg. Format: ADME, organism-based. The note with it: in vivo.
Series [3] deals with Cytochrome P450 3A4 (Homo sapiens, UniProt P08684). Put plainly: Inhibition of human liver microsomes CYP3A4 using testosterone as substrate by MUX-MS/MS analysis. Type of series: ADME, Microsome. (In general: Liver microsomes are vesicles of endoplasmic reticulum, rich in cytochrome P450 enzymes.)
Series [4] in a line: Volume of distribution at steady state in rat at 2 mg/kg, po or 1 mg/kg, iv. Particulars: in vivo, read-out: Vdss. Type of series: ADME, organism-based.
For series [5], the target named is Cytochrome P450 2D6 (Homo sapiens, UniProt P10635). In words: Inhibition of human liver microsomes CYP2D6 using dextromethorphan as substrate by MUX-MS/MS analysis. Format: ADME, Microsome.
For series [6], the target named is T1, Probable G-protein coupled receptor 142 (Homo sapiens, UniProt Q7Z601).
T1 sequence (Q7Z601 whole entry): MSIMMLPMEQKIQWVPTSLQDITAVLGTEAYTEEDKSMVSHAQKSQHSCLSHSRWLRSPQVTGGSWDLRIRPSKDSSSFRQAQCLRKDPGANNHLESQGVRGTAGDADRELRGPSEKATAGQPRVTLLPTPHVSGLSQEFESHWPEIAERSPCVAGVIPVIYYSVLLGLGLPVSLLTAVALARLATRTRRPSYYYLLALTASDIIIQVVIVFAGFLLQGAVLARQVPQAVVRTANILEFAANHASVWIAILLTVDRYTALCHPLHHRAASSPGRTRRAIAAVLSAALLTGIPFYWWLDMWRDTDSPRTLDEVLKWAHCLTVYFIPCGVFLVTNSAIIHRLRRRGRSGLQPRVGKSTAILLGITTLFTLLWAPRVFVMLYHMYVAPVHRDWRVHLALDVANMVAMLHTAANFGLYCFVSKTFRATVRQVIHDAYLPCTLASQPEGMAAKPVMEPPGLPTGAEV
In words: Agonist activity at human GPR142 expressed in CHO cells measured for 3 mins by Fluo-4M dye based FLIPR assay. Type of series: cell-based. The note with it: read-out: IC50 (the source's name).

Series [7] in a line: Half life in rat at 2 mg/kg, po or 1 mg/kg, iv. Format: ADME, organism-based. The note with it: in vivo.
The target in series [8] is Cytochrome P450 2C9 (Homo sapiens, UniProt P11712). Put plainly: Inhibition of human liver microsomes CYP2C9 using diclofenac as substrate by MUX-MS/MS analysis. Type of series: ADME, Microsome.
Series [9] can be described thus: Protein binding in rat plasma assessed as unbound fraction. Type of series: ADME, cell-free.
Series [10] relates to Mus musculus. In words: Antidiabetic activity in […] mouse assessed as reduction in dextrose-induced blood glucose peak administered po before dextrose stimulation and measured upto 120 mins after dextrose administration by OGTT assay. Type of series: functional, organism-based. The note with it: time min <=120.
In series [11] the target is Voltage-gated inwardly rectifying potassium channel KCNH2 (Homo sapiens, UniProt Q12809). In words: Inhibition of human ERG expressed in HEK293 cells assessed as reduction in S35-MK-0499 binding. Format: cell-based.
Series [12] concerns Mus musculus. In words: Antidiabetic activity in […] mouse harboring GPR142 deficient assessed as reduction in dextrose-induced blood glucose peak at 30 mg/kg, po administered before dextrose stimulation and measured upto 120 mins after dextrose administration by OGTT assay. Type of series: functional, organism-based. Particulars: time min <=120.
The target of series [13] is T2, Probable G-protein coupled receptor 142 (Mus musculus, UniProt Q7TQN9).
T2 sequence (Q7TQN9 whole entry): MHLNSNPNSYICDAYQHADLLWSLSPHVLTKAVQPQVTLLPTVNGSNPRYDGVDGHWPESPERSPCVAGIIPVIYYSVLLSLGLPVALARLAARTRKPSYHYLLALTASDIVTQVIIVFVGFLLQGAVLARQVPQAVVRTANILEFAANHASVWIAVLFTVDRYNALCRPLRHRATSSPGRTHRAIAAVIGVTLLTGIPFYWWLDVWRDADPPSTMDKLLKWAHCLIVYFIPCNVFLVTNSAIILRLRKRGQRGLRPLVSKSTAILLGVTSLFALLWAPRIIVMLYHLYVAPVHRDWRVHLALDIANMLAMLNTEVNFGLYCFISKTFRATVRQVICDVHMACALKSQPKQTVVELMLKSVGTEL
Put plainly: Agonist activity at mouse GPR142 expressed in CHO cells measured for 3 mins by Fluo-4M dye based FLIPR assay. Type of series: cell-based. Particulars: read-out: IC50 (the source's name).

Voltage-gated inwardly rectifying potassium channel KCNH2, sequence (Q12809 whole entry): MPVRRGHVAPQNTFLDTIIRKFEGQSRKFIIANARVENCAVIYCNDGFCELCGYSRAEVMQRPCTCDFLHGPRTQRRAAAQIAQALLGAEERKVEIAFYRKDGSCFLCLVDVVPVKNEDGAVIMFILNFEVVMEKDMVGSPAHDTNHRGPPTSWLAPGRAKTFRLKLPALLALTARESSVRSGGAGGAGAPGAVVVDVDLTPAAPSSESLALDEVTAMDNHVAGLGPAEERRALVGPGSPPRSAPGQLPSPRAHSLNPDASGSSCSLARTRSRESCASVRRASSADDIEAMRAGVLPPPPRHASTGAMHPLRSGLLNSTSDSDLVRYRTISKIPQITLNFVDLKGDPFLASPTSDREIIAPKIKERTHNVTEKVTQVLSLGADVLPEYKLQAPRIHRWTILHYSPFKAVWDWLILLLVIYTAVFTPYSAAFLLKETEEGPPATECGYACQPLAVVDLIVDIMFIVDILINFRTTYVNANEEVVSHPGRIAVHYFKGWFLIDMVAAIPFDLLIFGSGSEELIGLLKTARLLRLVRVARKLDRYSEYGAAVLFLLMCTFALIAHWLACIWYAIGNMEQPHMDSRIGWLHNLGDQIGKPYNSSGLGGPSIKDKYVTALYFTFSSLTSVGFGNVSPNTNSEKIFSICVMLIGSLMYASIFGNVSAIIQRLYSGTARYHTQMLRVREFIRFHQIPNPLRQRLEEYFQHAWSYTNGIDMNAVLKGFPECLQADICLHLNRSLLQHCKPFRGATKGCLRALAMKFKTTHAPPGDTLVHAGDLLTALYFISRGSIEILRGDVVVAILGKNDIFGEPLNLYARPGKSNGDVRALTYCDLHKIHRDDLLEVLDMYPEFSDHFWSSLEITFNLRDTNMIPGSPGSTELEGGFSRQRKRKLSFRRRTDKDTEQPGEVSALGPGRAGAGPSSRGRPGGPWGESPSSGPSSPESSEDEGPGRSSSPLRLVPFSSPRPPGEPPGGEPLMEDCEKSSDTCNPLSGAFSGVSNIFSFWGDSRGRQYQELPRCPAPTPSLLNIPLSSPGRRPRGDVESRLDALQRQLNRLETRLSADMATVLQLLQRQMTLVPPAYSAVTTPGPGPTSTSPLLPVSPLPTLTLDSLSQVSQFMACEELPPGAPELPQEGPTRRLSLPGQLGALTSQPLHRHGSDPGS
Cytochrome P450 3A4, sequence (P08684 whole entry): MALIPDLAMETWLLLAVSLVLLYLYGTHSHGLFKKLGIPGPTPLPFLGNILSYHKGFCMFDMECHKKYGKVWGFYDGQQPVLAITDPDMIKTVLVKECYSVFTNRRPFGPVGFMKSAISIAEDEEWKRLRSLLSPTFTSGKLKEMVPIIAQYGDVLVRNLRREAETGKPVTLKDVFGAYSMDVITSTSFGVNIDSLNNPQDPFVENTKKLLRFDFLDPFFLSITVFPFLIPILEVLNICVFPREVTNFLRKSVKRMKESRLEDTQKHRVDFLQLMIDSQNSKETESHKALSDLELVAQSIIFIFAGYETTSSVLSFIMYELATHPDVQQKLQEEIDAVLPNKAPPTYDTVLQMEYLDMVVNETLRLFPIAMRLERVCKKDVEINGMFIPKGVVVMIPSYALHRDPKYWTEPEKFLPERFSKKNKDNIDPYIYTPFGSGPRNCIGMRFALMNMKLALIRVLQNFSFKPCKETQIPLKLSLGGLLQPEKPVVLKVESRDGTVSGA
Cytochrome P450 2D6, sequence (P10635 whole entry): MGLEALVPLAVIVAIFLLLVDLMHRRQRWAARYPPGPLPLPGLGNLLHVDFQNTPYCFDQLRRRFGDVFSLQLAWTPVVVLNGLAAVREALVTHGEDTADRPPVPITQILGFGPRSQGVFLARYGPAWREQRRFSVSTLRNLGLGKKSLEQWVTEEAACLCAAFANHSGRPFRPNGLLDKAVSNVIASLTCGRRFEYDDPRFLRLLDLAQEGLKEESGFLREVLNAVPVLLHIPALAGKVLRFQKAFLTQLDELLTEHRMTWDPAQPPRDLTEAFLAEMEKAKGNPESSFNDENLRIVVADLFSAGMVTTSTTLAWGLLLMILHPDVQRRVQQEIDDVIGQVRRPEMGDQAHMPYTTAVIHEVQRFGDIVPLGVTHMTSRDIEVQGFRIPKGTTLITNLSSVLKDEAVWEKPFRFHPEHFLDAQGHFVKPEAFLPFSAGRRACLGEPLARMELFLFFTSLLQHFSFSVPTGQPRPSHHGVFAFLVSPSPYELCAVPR
Cytochrome P450 2C9, sequence (P11712 whole entry): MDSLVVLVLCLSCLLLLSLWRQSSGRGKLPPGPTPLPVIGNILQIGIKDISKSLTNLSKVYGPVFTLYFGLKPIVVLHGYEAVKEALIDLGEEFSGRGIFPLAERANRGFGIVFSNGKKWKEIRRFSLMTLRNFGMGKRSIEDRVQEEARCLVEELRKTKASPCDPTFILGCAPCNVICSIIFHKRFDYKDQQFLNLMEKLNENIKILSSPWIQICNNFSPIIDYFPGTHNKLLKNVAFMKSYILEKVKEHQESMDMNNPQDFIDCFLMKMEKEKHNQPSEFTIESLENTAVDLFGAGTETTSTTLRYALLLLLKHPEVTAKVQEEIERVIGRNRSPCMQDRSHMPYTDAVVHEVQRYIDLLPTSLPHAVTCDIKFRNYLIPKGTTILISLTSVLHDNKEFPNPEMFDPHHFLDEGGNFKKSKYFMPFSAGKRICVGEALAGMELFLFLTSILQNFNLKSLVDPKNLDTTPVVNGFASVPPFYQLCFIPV

Turning to `Cc1cc(-c2ccc3c(c2)-c2nnc(Oc4cccc(Cl)c4F)n2CCO3)ccn1`, the clearance in [1] turned out to be 8.9 mL/min/kg. The bioavailability in series [2] is 67%. Besides, the IC50 in [3] is 8390 nM; in series [5], 12100 nM; in [8], 5260 nM; in series [11], 2410 nM. Further, in [4], the Vd came out at 1.6 L/kg. In [6], the EC50 came out at 56 nM. The molecule also had a half-life in series [7] of 2 h. In addition, the unbound share (fraction unbound) in series [9] came out at 0.0111. Moreover, the Activity entry in [10] is “Dose-dependent effect”.

In series [1], `CCc1cc(-c2ccc3c(c2)-c2nnc(Nc4cccc(C(F)(F)F)c4)n2CCO3)ccn1` gave a clearance of 14 mL/min/kg. In series [2], this molecule showed a bioavailability of 97%. Further, the IC50 in [3] is over 50000 nM; in series [5] it was 2340 nM; in series [8] it was 3540 nM; in series [11], 334 nM. Besides, the Vd in series [4] is 2.6 L/kg. Further, the EC50 in series [6] worked out at 74 nM. The molecule further had a half-life in series [7] of 1.4 h. In addition, in series [9], the fraction unbound was 0.0034.

Take `FC(F)(F)Oc1cccc(Nc2nnc3n2CCOc2ccc(-c4ccncc4)cc2-3)c1`: the clearance in [1] was 23.9 mL/min/kg. Also, in series [2], the bioavailability came to 40%. The outcome in series [12] was inactive. Further, the IC50 in series [3] worked out at 1610 nM; in [5], 802 nM; in series [8] it was 934 nM; in [11], 605 nM. For the same molecule, in series [4], the Vd came to 2.2 L/kg. Further, the EC50 in [6] was determined as 63 nM. In series [7], the half-life was 1 h. Further, the fraction unbound in series [9] amounted to 0.0041. Further, in [10], the Activity entry is “Dose-dependent effect”.

In series [1], `Cc1cc(-c2ccc3c(c2)-c2nnc(Nc4cccc(Cl)c4)n2CCO3)ccn1` yielded a clearance of 7.8 mL/min/kg. The molecule further registered a bioavailability in [2] of 40%. The half-inhibitory concentration (IC50) in series [3] was determined as 11800 nM; in [5], 792 nM; in series [8], 3440 nM. The Vd in series [4] stood at 1.9 L/kg. The half-life in series [7] is 2.5 h. Moreover, in [9], the fraction unbound was determined as 0.0337.

Molecule `O=C(Nc1ccc(Cl)c(Cl)c1)N1CCOc2ccc(-c3ccncc3)cc2C1` gave a clearance in [1] of 88.6 mL/min/kg. In addition, the bioavailability in series [2] is 6%. Further, the Vd in series [4] stood at 3.4 L/kg. For the same molecule, the IC50 is 76000 nM in [5] and 2030 nM in series [11] (hek293). The figures for the EC50 in [6] and in [13] were 140 nM and 138 nM, respectively. The molecule further showed a half-life in [7] of 0.71 h. For the same molecule, in [9], the free fraction (fraction unbound) worked out at 0.0015.

Usually bioavailability stands for the share of a dose that reaches the circulation, judged against a reference dose that is usually intravenous. Broadly, the IC50 is the concentration needed to halve the response being measured. By half-life is commonly meant the time in which the quantity being followed falls by half. What is called fraction unbound is the share of the substance not bound to proteins or other matrix.
